# Measured values: ChEMBL document CHEMBL1201862, “PubChem BioAssay data set” (2004)
#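 In this assay, cells in 96-well plates receive the compound at five concentrations for 48 hours. Endpoints are linearly interpolated between the surrounding concentrations. The concentration for 50% growth inhibition is given as GI50.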 Activity calls are given as the source filed them. Cut-off read from the data, not from the text of the source: active = GI50 up to about 1.1 µM and inactive = higher.
# What was measured:
# Assay in all cases: growth of human tumour cells (NCI), 48 h
# 786-0 = test system: 786-0
# A498 = test system: A498
# A549 = test system: A549
# ACHN = test system: ACHN
# CAKI-1 = test system: CAKI-1
# CCRF-CEM = test system: CCRF-CEM
# COLO 205 = test system: COLO 205
# DLD-1 = test system: DLD-1
# DMS-114 = test system: DMS-114
# DMS-273 = test system: DMS-273
# EKVX = test system: EKVX
# HCT-116 = test system: HCT-116
# HL-60 = test system: HL-60
# HOP-18 = test system: HOP-18
# HOP-62 = test system: HOP-62
# HOP-92 = test system: HOP-92
# HT-29 = test system: HT-29
# IGROV-1 = test system: IGROV-1
# K562 = test system: K562
# KM-20L2 = test system: KM-20L2
# KM12 = test system: KM12
# LOX IMVI = test system: LOX IMVI
# LXFL 529 = test system: LXFL 529
# M14 = test system: M14
# M19-MEL = test system: M19-MEL
# MOLT-4 = test system: MOLT-4
# Malme-3M = test system: Malme-3M
# NCI-H226 = test system: NCI-H226
# NCI-H23 = test system: NCI-H23
# NCI-H460 = test system: NCI-H460
# NCI-H522 = test system: NCI-H522
# OVCAR-3 = test system: OVCAR-3
# OVCAR-4 = test system: OVCAR-4
# OVCAR-5 = test system: OVCAR-5
# OVCAR-8 = test system: OVCAR-8
# RPMI-8226 = test system: RPMI-8226
# RXF 393 = test system: RXF 393
# SF-268 = test system: SF-268
# SF-295 = test system: SF-295
# SF-539 = test system: SF-539
# SK-MEL-28 = test system: SK-MEL-28
# SK-MEL-2 = test system: SK-MEL-2
# SK-MEL-5 = test system: SK-MEL-5
# SK-OV-3 = test system: SK-OV-3
# SN12C = test system: SN12C
# SNB-19 = test system: SNB-19
# SNB-75 = test system: SNB-75
# SNB-78 = test system: SNB-78
# SR = test system: SR
# SW-620 = test system: SW-620
# TK-10 = test system: TK-10
# U-251 = test system: U-251
# UACC-257 = test system: UACC-257
# UACC-62 = test system: UACC-62
# UO-31 = test system: UO-31
# XF498 = test system: XF498
# BT-549 = test system: BT-549
# DU-145 = test system: DU-145
# HCC 2998 = test system: HCC 2998
# HCT-15 = test system: HCT-15
# Hs-578T = test system: Hs-578T
# MCF7 = test system: MCF7
# MDA-MB-231 = test system: MDA-MB-231
# MDA-MB-435 = test system: MDA-MB-435
# MDA-N = test system: MDA-N
# NCI/ADR-RES = test system: NCI/ADR-RES
# PC-3 = test system: PC-3
# T47D = test system: T47D
smiles,measurement,setting,value
COc1ccc(C(=O)O)c(Cc2ccc3ccccc3c2)c1,GI50,786-0,> 100 µM (inactive)
same,GI50,A498,> 100 µM (inactive)
same,GI50,A549,> 100 µM (inactive)
same,GI50,ACHN,> 100 µM (inactive)
same,GI50,CAKI-1,> 100 µM (inactive)
same,GI50,CCRF-CEM,> 100 µM (inactive)
same,GI50,COLO 205,> 100 µM (inactive)
same,GI50,DLD-1,> 100 µM (inactive)
same,GI50,DMS-114,> 100 µM (inactive)
same,GI50,DMS-273,> 100 µM (inactive)
same,GI50,EKVX,> 100 µM (inactive)
same,GI50,HCT-116,> 100 µM (inactive)
same,GI50,HL-60,> 100 µM (inactive)
same,GI50,HOP-18,> 100 µM (inactive)
same,GI50,HOP-62,> 100 µM (inactive)
same,GI50,HOP-92,> 100 µM (inactive)
same,GI50,HT-29,> 100 µM (inactive)
same,GI50,IGROV-1,> 100 µM (inactive)
same,GI50,K562,> 100 µM (inactive)
same,GI50,KM-20L2,> 100 µM (inactive)
same,GI50,KM12,> 100 µM (inactive)
same,GI50,LOX IMVI,> 100 µM (inactive)
same,GI50,LXFL 529,> 100 µM (inactive)
same,GI50,M14,> 100 µM (inactive)
same,GI50,M19-MEL,> 100 µM (inactive)
same,GI50,MOLT-4,> 100 µM (inactive)
same,GI50,Malme-3M,> 100 µM (inactive)
same,GI50,NCI-H226,> 100 µM (inactive)
same,GI50,NCI-H23,> 100 µM (inactive)
same,GI50,NCI-H460,> 100 µM (inactive)
same,GI50,NCI-H522,> 100 µM (inactive)
same,GI50,OVCAR-3,> 100 µM (inactive)
same,GI50,OVCAR-4,> 100 µM (inactive)
same,GI50,OVCAR-5,> 100 µM (inactive)
same,GI50,OVCAR-8,> 100 µM (inactive)
same,GI50,RPMI-8226,> 100 µM (inactive)
same,GI50,RXF 393,> 100 µM (inactive)
same,GI50,SF-268,> 100 µM (inactive)
same,GI50,SF-295,> 100 µM (inactive)
same,GI50,SF-539,> 100 µM (inactive)
same,GI50,SK-MEL-28,> 100 µM (inactive)
same,GI50,SK-MEL-2,> 100 µM (inactive)
same,GI50,SK-MEL-5,> 100 µM (inactive)
same,GI50,SK-OV-3,> 100 µM (inactive)
same,GI50,SN12C,> 100 µM (inactive)
same,GI50,SNB-19,> 100 µM (inactive)
same,GI50,SNB-75,> 100 µM (inactive)
same,GI50,SNB-78,> 100 µM (inactive)
same,GI50,SR,> 100 µM (inactive)
same,GI50,SW-620,> 100 µM (inactive)
same,GI50,TK-10,> 100 µM (inactive)
same,GI50,U-251,> 100 µM (inactive)
same,GI50,UACC-257,> 100 µM (inactive)
same,GI50,UACC-62,> 100 µM (inactive)
same,GI50,UO-31,> 100 µM (inactive)
same,GI50,XF498,> 100 µM (inactive)
NN,GI50,786-0,204 µM (inactive)
same,GI50,A498,317 µM (inactive)
same,GI50,A549,145 µM (inactive)
same,GI50,ACHN,593 µM (inactive)
same,GI50,BT-549,1080 µM (inactive)
same,GI50,CAKI-1,445 µM (inactive)
same,GI50,CCRF-CEM,72.3 µM (inactive)
same,GI50,COLO 205,328 µM (inactive)
same,GI50,DLD-1,296 µM (inactive)
same,GI50,DMS-273,132 µM (inactive)
same,GI50,DU-145,793 µM (inactive)
same,GI50,EKVX,883 µM (inactive)
same,GI50,HCC 2998,1040 µM (inactive)
same,GI50,HCT-116,192 µM (inactive)
same,GI50,HCT-15,296 µM
same,GI50,HL-60,205 µM (inactive)
same,GI50,HOP-18,324 µM (inactive)
same,GI50,HOP-62,259 µM (inactive)
same,GI50,HOP-92,525 µM (inactive)
same,GI50,HT-29,234 µM (inactive)
same,GI50,Hs-578T,809 µM (inactive)
same,GI50,IGROV-1,357 µM (inactive)
same,GI50,K562,88.7 µM (inactive)
same,GI50,KM-20L2,231 µM (inactive)
same,GI50,KM12,480 µM (inactive)
same,GI50,LOX IMVI,86.3 µM (inactive)
same,GI50,M14,468 µM (inactive)
same,GI50,MCF7,179 µM (inactive)
same,GI50,MDA-MB-231,423 µM (inactive)
same,GI50,MDA-MB-435,210 µM (inactive)
same,GI50,MDA-N,150 µM (inactive)
same,GI50,MOLT-4,193 µM (inactive)
same,GI50,Malme-3M,881 µM (inactive)
same,GI50,NCI-H226,481 µM (inactive)
same,GI50,NCI-H23,359 µM (inactive)
same,GI50,NCI-H460,188 µM (inactive)
same,GI50,NCI-H522,335 µM (inactive)
same,GI50,NCI/ADR-RES,740 µM (inactive)
same,GI50,OVCAR-3,431 µM (inactive)
same,GI50,OVCAR-4,625 µM (inactive)
same,GI50,OVCAR-5,514 µM (inactive)
same,GI50,OVCAR-8,406 µM (inactive)
same,GI50,PC-3,628 µM (inactive)
same,GI50,RPMI-8226,303 µM (inactive)
same,GI50,RXF 393,453 µM (inactive)
same,GI50,SF-268,561 µM (inactive)
same,GI50,SF-295,574 µM (inactive)
same,GI50,SF-539,582 µM (inactive)
same,GI50,SK-MEL-28,585 µM (inactive)
same,GI50,SK-MEL-2,607 µM (inactive)
same,GI50,SK-MEL-5,594 µM (inactive)
same,GI50,SK-OV-3,1240 µM (inactive)
same,GI50,SN12C,403 µM (inactive)
same,GI50,SNB-19,887 µM (inactive)
same,GI50,SNB-75,851 µM (inactive)
same,GI50,SNB-78,1190 µM (inactive)
same,GI50,SR,100 µM (inactive)
same,GI50,SW-620,235 µM (inactive)
same,GI50,T47D,618 µM (inactive)
same,GI50,TK-10,893 µM (inactive)
same,GI50,U-251,410 µM (inactive)
same,GI50,UACC-257,851 µM (inactive)
same,GI50,UACC-62,358 µM (inactive)
same,GI50,UO-31,434 µM (inactive)
